Columns and labels:
GAPDH, RPN2 and USP14 = test: CETSA control proteins, SKOV3 cells; type: binding, human; conditions: SKOV3, 10 μM, 30 min
Method: (§1) Cells were incubated in a thermal cycler (Biorad IQ5 Cycler) over a gradient of temperatures for 4 min, followed by incubation at 25°C for 3 min, then snap-frozen in liquid nitrogen and subjected to three freeze–thaw cycles. Samples were briefly vortexed and centrifuged at 16,000 x g for 20 min at 4°C. Cleared cell lysates were resolved in SDS–PAGE followed by immunoblotting for RPN13, GAPDH, RPN2 and USP14.
(§2) Cellular Thermal Shift Assay (CETSA) assesses thermal stabilization of proteins upon ligand binding and is used extensively to detect drug interactions by implementing a thermal shift in the cellular context. The assay involves drug treatment of cells, heating to denature and precipitate proteins in a thermocycler with a specified gradient of temperatures, cell lysis by freeze/thaw cycles, and the separation of cell debris and aggregates from the soluble protein fraction by centrifugation. Whereas unbound proteins denature and precipitate at elevated temperatures, ligand-bound proteins remain in solution. The proportion of individual proteins remaining in solution can be detected by quantitative Western blotting. […]. There was no impact on other control proteins tested, including a house keeping protein (GAPDH) and proteasome subunits (RPN2 and USP14). […]
(§3) Resuspended cells were aliquoted into PCR strips. […]

[1] = tested on: ID8-luc murine ovarian tumor; test: ID8-Defb29/VegfA-luc syngeneic model, C57BL6 mice; type: in vivo, mouse
Method: Female C57BL6 mice were inoculated IP with 3x10^5 ID8-Defb29/VegfA-luc cells in 100 μL PBS. At day 3, mice were imaged for basal level luminescence activity with a Xenogen IVIS 200 after IP injection with luciferin (0.3 mg in 100 μL water). Mice were randomized into groups and treated IP with compounds or vehicle (25% (w/v) β-Hydroxypropylcyclodextrin in water), and imaged again on days indicated.
(§4) A-C) Female nude mice were inoculated IP with ES2-luc cells, a human ovarian cancer line expressing luciferase. […] The IP tumor tissue and electroporated normal muscle tissue, being spatially distinct, were identified with separate regions of interest (ROI) after simultaneous imaging with IVIS.
Female C57BL6 mice (4–6 weeks) were challenged IP with ID8-luc tumor.

RPN13 = target: T1, RPN13 (Homo sapiens, UniProt Q16186); test: Cellular Thermal Shift Assay (CETSA), SKOV3 cells; type: binding; conditions: SKOV3, 10 μM, 30 min, vs DMSO
T1 construct: endogenous in cells; host or cells: SKOV3 cells
T1 sequence (Q16186 whole entry): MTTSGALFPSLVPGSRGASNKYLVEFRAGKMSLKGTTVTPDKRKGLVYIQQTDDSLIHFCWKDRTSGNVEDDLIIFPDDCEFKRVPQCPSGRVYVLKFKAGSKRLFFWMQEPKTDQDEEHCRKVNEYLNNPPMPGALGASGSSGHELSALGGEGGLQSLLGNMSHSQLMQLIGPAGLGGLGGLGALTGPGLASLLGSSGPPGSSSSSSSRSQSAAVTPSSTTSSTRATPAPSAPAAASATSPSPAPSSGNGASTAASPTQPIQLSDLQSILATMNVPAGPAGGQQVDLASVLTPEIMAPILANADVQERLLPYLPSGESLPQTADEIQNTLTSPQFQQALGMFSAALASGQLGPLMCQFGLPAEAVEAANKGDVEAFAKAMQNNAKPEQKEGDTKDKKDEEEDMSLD
Method: as §1, §2, §3

ES2 cells = test: Reactive oxygen species, Amplex Red/HRP; conditions: 12 h
SKOV3 cells = test: MTT cytotoxicity assay, SKOV3 cells, 72 h; type: cell-based; conditions: Homo sapiens, SK-OV-3; 72 h treatment
Neat solution stability = type: physicochemical; conditions: 10 μM, 37°C
Method: An incubation mixture with, and without NADPH-generating system, as well as a neat solution prepared without microsomes and NADPH-generating system was used. […] All reactions were initiated with the addition of Up284. Incubations were performed in glass tubes maintained at 37°C in a shaker bath. At 0, 30, and 60 minutes, 10 μL samples were withdrawn from the reaction mixture, and 0.5 mL of acetonitrile containing internal standard was added to each. Samples were vortex-mixed and subjected to centrifugation for 5 min at 1430 x g. A 10 μL aliquot of the supernatant was injected onto the LC-MS/MS instrument for qualitative analysis using a temperature-controlled autosampling device operating at 5°C.

[2] = Plasma stability, mouse EDTA plasma; type: in vitro ADME; conditions: for % Drug Remaining, Plasma (Mouse EDTA): 10 μM, 37°C
[3] = tested on: peritoneal/ovarian tumor (shp53, AKT, c-Myc); test: Spontaneous genetically-engineered mouse model (GEMM) of ovarian cancer; type: in vivo; conditions: C57BL/6, 20mg/kg IP every 3 days for 6 weeks
Method: To induce IP tumor formation in immunocompetent mice, oncogenes (shp53, AKT, c-Myc), luciferase and the Sleeping Beauty (SB) transposase (10 μg/plasmid) were diluted in 500 μL of PBS and injected IP into female C57BL/6 mice. The mice were anesthetized by intramuscular injection of ketamine. The plasmid-injected mice were electroporated (EP) by the BTX ECM 830 square wave EP generator (BTX) (5 pulses, 200 V for 100 ms/pulse, 100 ms intervals between each pulse), the caliper electrode (BTX) was held on the waist of mouse. The mice were followed by IVIS imaging weekly for tracking tumor growth. The mice were sacrificed when the bioluminescence signal reached 10^9 photons/sec/cm^2/sr, or had enlarged abdomens due to the production of ascites, or had health conditions and/or criteria under which early euthanasia was required by the protocol (see above). To track peritoneal tumor growth, bioluminescence imaging was performed by the IVIS spectrum2000 (PerkinElmer) as the plasmid expressing SB transposase also produces luciferase. Briefly, the mice were injected IP with D-luciferin (GoldBio). After 10 min, the mice were anesthetized with isoflurane, and imaged by the IVIS Spectrum under the auto exposure mode. Bioluminescence in the peritoneal region was quantified as total photon counts/sec/cm^2/sr using Living Image 3.0 Software (Perkin Elmer).
as §4
GEMM better mimic the spontaneous development of cancers in an immune competent host than transplantable tumor lines. Twenty female C57BL/6 mice were co-injected IP with sleeping beauty vector and plasmids expressing carrying shp53, AKT, c-Myc and firefly luciferase genes, followed by electroporation (EP) to deliver these plasmid DNA into the peritoneal cavity cells wherein they integrate randomly into their genome. […]

[4] = tested on: PEA2, PACS and SKOV3 cells; test: Checkerboard combination cytotoxicity (MTT, Synergy finder); type: cell-based; conditions: 72 h
Method: Results are reported as mean ± standard deviation (s.d.). Statistical significance of differences was assessed by two-tailed Student’s t using Prism (V.5 Graphpad, San Diego, CA) with the level of significance set at p≤0.05. Survival was summarized using Kaplan–Meier methods and compared using log-rank tests. Combination indices (CI) were calculated using Synergy finder.
Cell viability was measured using MTT assay and data was processed using the Synergy Finder web application. B) Same as in A, PACS cell line derived from spontaneous mouse ovarian tumor [32], was used. (TIF) Click here for additional data file.
Cell viability was measured using MTT assay and data was processed using the Synergy Finder web application. (TIF) Click here for additional data file.

In the case of N#Cc1ccc(/C=C2/C(=O)/C(=C/c3ccc(C#N)cc3)C23CCNCC3)cc1 [Up284], the “thermal stabilization of GAPDH, RPN2 and USP14” value (GAPDH, RPN2 and USP14) is reported as “no impact”, the survival vs vehicle ([1]; C57BL6, 20 mg/kg IP every third day for 4 weeks, p = 0.0004) is reported as “significantly enhanced survival” and the “ID8-luc tumor burden (bioluminescence) vs vehicle” value ([1]; C57BL6, 20 mg/kg IP every third day, day 15, p = 0.0001) is reported as “significantly lower tumor burden”. For the same compound, the “thermal stabilization of RPN13” value (RPN13) was “stabilized”, the reactive oxygen species (ES2 cells) was “elevated levels of reactive oxygen species” and the IC50 (SKOV3 cells) was 71 nM. The “% Drug Remaining, Neat Solution” value (Neat solution stability; 0 min) was 100%, the “% Drug Remaining, Neat Solution” value (Neat solution stability; 30 min) was 86% and the “% Drug Remaining, Neat Solution” value (Neat solution stability; 60 min) was 78%. For the same compound, the “% Drug Remaining, Plasma (Mouse EDTA)” value ([2]; 0 min) was 100%, the “% Drug Remaining, Plasma (Mouse EDTA)” value ([2]; 30 min) was 84% and the “% Drug Remaining, Plasma (Mouse EDTA)” value ([2]; 60 min) was 94%. The “degradation in murine plasma” value ([2]; after incubating for 1 hour) was under 10%, the ascites [3] was “did not develop appreciable ascites” and the “GEMM tumor burden vs vehicle” value ([3]; p = 0.002) was “significantly reduced tumor burden”. For the same compound, the survival vs vehicle ([3]; p = 0.06) was “trend for prolonged survival”, the “cytotoxicity of Up284 and doxorubicin combination” value ([4]; SKOV3 cells) was “synergy” and the “cytotoxicity of checkerboard combinations of Up284 and cisplatin” value ([4]; several cell lines including PEA2 and PACS) was “clear evidence of synergy”.

From paper PMC10266688 (PLOS ONE, 2023)
